Measured values taken from the supplement of paper PMC10307832.

Tests used:
Assay in all cases: relative viability (nuclei count vs DMSO), 5 days (fraction); higher = more cells survive
LCLC-97TM1 = tested on: LCLC-97TM1
Procedure, shortened: (§1)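 One day after seeding in 1536-well plates, lung cancer cell lines were dosed by pin tool. Dosing was either single-drug or a fixed anchor-drug dose plus five library-drug doses (not always all listed) in √10 steps. After 5 days, nuclei were stained in one fix-and-stain step and counted on 4× images, and relative viability is the nuclei count of treated wells over that of vehicle wells, given as the median of duplicate plates.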

NCI-H460 = tested on: NCI-H460
Procedure, shortened: as §1

LXF-289 = tested on: LXF-289
Procedure, shortened: as §1

HCC-78 = tested on: HCC-78
Procedure, shortened: as §1

HOP-62 = tested on: HOP-62
Procedure, shortened: as §1

A-427 = tested on: A-427
Procedure, shortened: as §1

EPLC-272H = tested on: EPLC-272H
Procedure, shortened: as §1

NCI-H1975 = tested on: NCI-H1975
Procedure, shortened: as §1

NCI-H358 = tested on: NCI-H358
Procedure, shortened: as §1

COR-L 105 = tested on: COR-L 105
Procedure, shortened: as §1

NCI-H2170 = tested on: NCI-H2170
Procedure, shortened: as §1

HCC-366 = tested on: HCC-366
Procedure, shortened: as §1

NCI-H1792 = tested on: NCI-H1792
Procedure, shortened: as §1

LU99A = tested on: LU99A
Procedure, shortened: as §1

NCI-H1915 = tested on: NCI-H1915
Procedure, shortened: as §1

NCI-H1793 = tested on: NCI-H1793
Procedure, shortened: as §1

NCI-H1944 = tested on: NCI-H1944
Procedure, shortened: as §1

UMC-11 = tested on: UMC-11
Procedure, shortened: as §1

LC-2-ad = tested on: LC-2-ad
Procedure, shortened: as §1

SK-LU-1 = tested on: SK-LU-1
Procedure, shortened: as §1

NCI-H2085 = tested on: NCI-H2085
Procedure, shortened: as §1

NCI-H1755 = tested on: NCI-H1755
Procedure, shortened: as §1

Compound: Clc1ccc(Nc2nnc(Cc3ccncc3)c3ccccc23)cc1 [Vatalanib] + CS(=O)(=O)N1CCN(Cc2cc3nc(-c4cccc5[nH]ncc45)nc(N4CCOCC4)c3s2)CC1 [Pictilisib] (partner 1 µM)
- relative viability (LCLC-97TM1; first compound 0.04 µM): 0.136
- relative viability (LCLC-97TM1; first compound 0.1265 µM): 0.243
- relative viability (LCLC-97TM1; first compound 0.4 µM): 0.187
- relative viability (LCLC-97TM1; first compound 1.265 µM): 0.19
- relative viability (LCLC-97TM1; first compound 4 µM): 0.195
- relative viability (NCI-H460; first compound 0.04 µM): 0.361
- relative viability (NCI-H460; first compound 0.1265 µM): 0.356
- relative viability (NCI-H460; first compound 0.4 µM): 0.378
- relative viability (NCI-H460; first compound 1.265 µM): 0.352
- relative viability (NCI-H460; first compound 4 µM): 0.312
- relative viability (LXF-289; first compound 0.04 µM): 0.894
- relative viability (LXF-289; first compound 0.1265 µM): 0.737
- relative viability (LXF-289; first compound 0.4 µM): 0.748
- relative viability (LXF-289; first compound 1.265 µM): 0.702
- relative viability (LXF-289; first compound 4 µM): 0.747
- relative viability (HCC-78; first compound 0.04 µM): 0.199
- relative viability (HCC-78; first compound 0.1265 µM): 0.172
- relative viability (HCC-78; first compound 0.4 µM): 0.183
- relative viability (HCC-78; first compound 4 µM): 0.196
- relative viability (HOP-62; first compound 0.04 µM): 0.758
- relative viability (HOP-62; first compound 0.4 µM): 0.632
- relative viability (HOP-62; first compound 1.265 µM): 0.702
- relative viability (HOP-62; first compound 4 µM): 0.713
- relative viability (A-427; first compound 0.04 µM): 0.667
- relative viability (A-427; first compound 0.1265 µM): 0.671
- relative viability (A-427; first compound 0.4 µM): 0.736
- relative viability (A-427; first compound 1.265 µM): 0.624
- relative viability (A-427; first compound 4 µM): 0.677
- relative viability (EPLC-272H; first compound 0.04 µM): 0.35
- relative viability (EPLC-272H; first compound 0.1265 µM): 0.309
- relative viability (EPLC-272H; first compound 0.4 µM): 0.151
- relative viability (EPLC-272H; first compound 1.265 µM): 0.332
- relative viability (EPLC-272H; first compound 4 µM): 0.344
- relative viability (NCI-H1975; first compound 0.04 µM): 0.277
- relative viability (NCI-H1975; first compound 0.1265 µM): 0.322
- relative viability (NCI-H1975; first compound 0.4 µM): 0.32
- relative viability (NCI-H1975; first compound 1.265 µM): 0.258
- relative viability (NCI-H1975; first compound 4 µM): 0.287
- relative viability (NCI-H358; first compound 0.04 µM): 0.378
- relative viability (NCI-H358; first compound 0.1265 µM): 0.361
- relative viability (NCI-H358; first compound 0.4 µM): 0.397
- relative viability (NCI-H358; first compound 1.265 µM): 0.311
- relative viability (NCI-H358; first compound 4 µM): 0.353
- relative viability (COR-L 105; first compound 0.04 µM): 0.361
- relative viability (COR-L 105; first compound 0.1265 µM): 0.4
- relative viability (COR-L 105; first compound 0.4 µM): 0.276
- relative viability (COR-L 105; first compound 1.265 µM): 0.359
- relative viability (COR-L 105; first compound 4 µM): 0.377
- relative viability (NCI-H2170; first compound 0.04 µM): 0.319
- relative viability (NCI-H2170; first compound 0.1265 µM): 0.331
- relative viability (NCI-H2170; first compound 0.4 µM): 0.329
- relative viability (NCI-H2170; first compound 1.265 µM): 0.356
- relative viability (NCI-H2170; first compound 4 µM): 0.306
- relative viability (HCC-366; first compound 0.04 µM): 0.137
- relative viability (HCC-366; first compound 0.1265 µM): 0.196
- relative viability (HCC-366; first compound 0.4 µM): 0.131
- relative viability (HCC-366; first compound 1.265 µM): 0.0986
- relative viability (HCC-366; first compound 4 µM): 0.11
- relative viability (NCI-H1792; first compound 0.04 µM): 0.279
- relative viability (NCI-H1792; first compound 0.1265 µM): 0.327
- relative viability (NCI-H1792; first compound 0.4 µM): 0.249
- relative viability (NCI-H1792; first compound 1.265 µM): 0.276
- relative viability (NCI-H1792; first compound 4 µM): 0.28
- relative viability (LU99A; first compound 0.04 µM): 0.34
- relative viability (LU99A; first compound 0.1265 µM): 0.306
- relative viability (LU99A; first compound 0.4 µM): 0.375
- relative viability (LU99A; first compound 1.265 µM): 0.306
- relative viability (LU99A; first compound 4 µM): 0.312
- relative viability (NCI-H1915; first compound 0.04 µM): 1.12
- relative viability (NCI-H1915; first compound 0.1265 µM): 0.929
- relative viability (NCI-H1915; first compound 0.4 µM): 0.972
- relative viability (NCI-H1915; first compound 1.265 µM): 0.863
- relative viability (NCI-H1915; first compound 4 µM): 0.942
- relative viability (NCI-H1793; first compound 0.04 µM): 0.218
- relative viability (NCI-H1793; first compound 0.1265 µM): 0.326
- relative viability (NCI-H1793; first compound 0.4 µM): 0.382
- relative viability (NCI-H1793; first compound 1.265 µM): 0.293
- relative viability (NCI-H1793; first compound 4 µM): 0.347
- relative viability (NCI-H1944; first compound 0.04 µM): 0.351
- relative viability (NCI-H1944; first compound 0.1265 µM): 0.316
- relative viability (NCI-H1944; first compound 0.4 µM): 0.37
- relative viability (NCI-H1944; first compound 1.265 µM): 0.356
- relative viability (NCI-H1944; first compound 4 µM): 0.352
- relative viability (UMC-11; first compound 0.04 µM): 0.814
- relative viability (UMC-11; first compound 0.1265 µM): 0.746
- relative viability (UMC-11; first compound 0.4 µM): 0.875
- relative viability (UMC-11; first compound 1.265 µM): 0.79
- relative viability (UMC-11; first compound 4 µM): 0.794
- relative viability (LC-2-ad; first compound 0.04 µM): 0.574
- relative viability (LC-2-ad; first compound 0.1265 µM): 0.551
- relative viability (LC-2-ad; first compound 0.4 µM): 0.559
- relative viability (LC-2-ad; first compound 1.265 µM): 0.509
- relative viability (LC-2-ad; first compound 4 µM): 0.645
- relative viability (SK-LU-1; first compound 0.04 µM): 0.596
- relative viability (SK-LU-1; first compound 0.1265 µM): 0.581
- relative viability (SK-LU-1; first compound 0.4 µM): 0.523
- relative viability (SK-LU-1; first compound 1.265 µM): 0.535
- relative viability (SK-LU-1; first compound 4 µM): 0.527
- relative viability (NCI-H2085; first compound 0.04 µM): 0.424
- relative viability (NCI-H2085; first compound 0.1265 µM): 0.524
- relative viability (NCI-H2085; first compound 0.4 µM): 0.44
- relative viability (NCI-H2085; first compound 1.265 µM): 0.469
- relative viability (NCI-H2085; first compound 4 µM): 0.438
- relative viability (NCI-H1755; first compound 0.04 µM): 0.405
- relative viability (NCI-H1755; first compound 0.1265 µM): 0.395
- relative viability (NCI-H1755; first compound 0.4 µM): 0.453
- relative viability (NCI-H1755; first compound 1.265 µM): 0.387
- relative viability (NCI-H1755; first compound 4 µM): 0.383
